Experimental data published in patent US12186302B2, “Dipeptidyl peptidase-IV inhibitor and food with function claims” (TOYOTA JIDOSHA KABUSHIKI KAISHA, priority 2020, dated 2025).

Assays:
DPP-IV [1] = target: T1, DPP-IV (Homo sapiens, UniProt P27487); settings: background art, JP Patent Publication (Kokai) No. 2018-118939 A; cited from earlier work
DPP-IV [2] = target: T1, DPP-IV; experiment: DPP (IV) Inhibitor Screening Assay Kit (Cayman Chemical), fluorescence; format: biochemical; settings: for DPP-IV inhibitory activity (inhibition rate, FIG. 1): comparison of various catechins, 37° C., 30 minutes
Source text: In this Example, various catechins including a methylated catechin were used to examine their DPP-IV inhibitory activity. Regarding the DPP-IV inhibitory activity, a commercially available DPP (IV) Inhibitor Screening Assay Kit (manufactured by Cayman Chemical) was used. Catechins tested in this Example were epicatechin-3-O-gallate (ECG), epicatechin (EC), epigallocatechin(EGC), (−)-epigallocatechin gallate (EGCG), and (−)-epigallocatechin 3-(3″-O-methyl)gallate (EGCG3″Me). These catechins were purchased from Nagara Science Co., Ltd. In addition, caffeine was purchased from Sigma-Aldrich, and L-theanine was purchased from FUJIFILM Wako Pure Chemical Corporation for testing.
In the experiment, first, a sample (5 μL), buffer (15 μL), DPP-IV (5 μL), and a substrate (25 μL) were added to a 96-well plate and incubated at 37° C. for 30 minutes. Then, the fluorescence intensity was measured by using a fluorometer (Envision 2104 Multilaber Reader, manufactured by Perkin Elmer) (excitation wavelength: 355 nm; fluorescence wavelength: 450 nm).
Next, the fluorescence intensity measured with the addition of ultrapure water (5 μL), buffer (20 μL), and a substrate (25 μL) was subtracted as a background from the fluorescence intensity of each sample. The fluorescence intensity measured with the addition of ultrapure water (5 μL), buffer (15 μL), DPP-IV (5 μL), and a substrate (25 μL) was defined as 100% initial activity.
The inhibition rate was calculated by subtracting the fluorescence intensity of the sample from the fluorescence intensity of 100% initial activity, then dividing the difference by the fluorescence intensity of 100% initial activity, and finally multiplying the quotient by 100. As a positive control, sitagliptin included in the kit was used.
Specifically, in the experiment described above, the concentration of EGCG3″Me was set to 1 μM, 5 μM, 10 μM, 50 μM, 100 μM or 200 μM, and the DPP-IV inhibitory activity was measured using the DPP (IV) Inhibitor Screening Assay Kit.

T1 sequence (P27487 whole entry): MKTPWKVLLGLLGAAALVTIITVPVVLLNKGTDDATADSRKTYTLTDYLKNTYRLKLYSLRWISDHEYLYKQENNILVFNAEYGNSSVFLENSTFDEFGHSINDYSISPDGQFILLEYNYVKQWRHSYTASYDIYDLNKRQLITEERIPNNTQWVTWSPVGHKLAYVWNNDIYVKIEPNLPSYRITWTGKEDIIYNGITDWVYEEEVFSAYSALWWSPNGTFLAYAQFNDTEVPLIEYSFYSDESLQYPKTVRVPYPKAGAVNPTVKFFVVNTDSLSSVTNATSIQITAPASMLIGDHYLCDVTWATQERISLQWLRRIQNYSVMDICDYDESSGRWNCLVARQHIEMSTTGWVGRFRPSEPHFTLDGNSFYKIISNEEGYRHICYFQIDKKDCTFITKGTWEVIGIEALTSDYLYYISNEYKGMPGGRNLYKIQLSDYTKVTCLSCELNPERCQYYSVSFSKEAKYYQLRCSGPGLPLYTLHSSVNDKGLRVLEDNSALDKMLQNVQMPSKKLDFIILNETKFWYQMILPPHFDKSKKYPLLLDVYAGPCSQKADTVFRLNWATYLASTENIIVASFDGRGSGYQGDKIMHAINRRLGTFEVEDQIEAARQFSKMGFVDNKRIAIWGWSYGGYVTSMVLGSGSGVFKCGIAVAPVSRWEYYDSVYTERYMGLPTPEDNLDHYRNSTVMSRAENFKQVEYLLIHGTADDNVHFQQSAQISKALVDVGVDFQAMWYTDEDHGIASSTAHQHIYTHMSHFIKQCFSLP

Molecule	DPP-IV inhibitory effect (DPP-IV [1])	DPP-IV inhibitory activity (inhibition rate, FIG. 1) (DPP-IV [2])	relationship between concentration and DPP-IV inhibitory activity (FIG. 2) (DPP-IV [2]; 1 μM, 5 μM, 10 μM, 50 μM, 100 μM or 200 μM)	DPP-IV inhibitory activity (FIG. 2) (DPP-IV [2]; when concentration exceeds 50 μM)
O=C(O[C@@H]1Cc2c(O)cc(O)cc2O[C@@H]1c1ccc(O)c(O)c1)c1cc(O)c(O)c(O)c1 [ECg, epicatechin gallate]	have the DPP-IV inhibitory effect			
Oc1cc(O)c2c(c1)O[C@H](c1cc(O)c(O)c(O)c1)[C@H](O)C2 [EGC, epigallocatechin]	have the DPP-IV inhibitory effect			
Oc1cc(O)c2c(c1)O[C@H](c1cc(O)c(O)c(O)c1)[C@@H](O)C2 [GC, gallocatechin]	have the DPP-IV inhibitory effect			
O=C(O[C@@H]1Cc2c(O)cc(O)cc2O[C@H]1c1cc(O)c(O)c(O)c1)c1cc(O)c(O)c(O)c1 [GCg, gallocatechin gallate]	have the DPP-IV inhibitory effect			
(−)-epigallocatechin gallate [EGCG]	have the DPP-IV inhibitory effect	excellent DPP-IV inhibitory activity		
catechin gallate [Cg]	have the DPP-IV inhibitory effect			
epigallocatechin-3-O-(3-O-methyl)gallate [EGCG3″Me]		particularly excellent DPP-IV inhibitory activity	tends to increase as the concentration increases	extremely excellent DPP-IV inhibitory activity
